The source of these data is patent US9796727B2, “Field effect transistor” (Nippon Kayaku Kabushiki Kaisha, priority 2009, dated 2017).

The nature of this data set: Solubility measurement in toluene. The format is physicochemical. As to conditions: 60° C. How it is done: Example 1: Solubility Measurement
In Table 2, solubility (g/L) in toluene at 60° C. is listed.

The structures appear in SMILES notation. Values after ≈ are worked out from the molar mass of the structure shown. Bounds are passed on as bounds.

The compound `CCCCCCCCc1ccc2cc3c(cc2c1)sc1c2cc4ccc(CCCCCCCC)cc4cc2sc31` [Compound No. 10, 6,6′-dioctyldinaphtho[2,3-b:2′,3′-f]thieno[3,2-b]thiophen] displayed a solubility in toluene of 60 µg/mL (≈ 106 µM).

With `CCCCCCCCCCc1ccc2cc3c(cc2c1)sc1c2cc4ccc(CCCCCCCCCC)cc4cc2sc31` [Compound No. 12, 6,6′-Didecyldinaphtho[2,3-b:2′,3′-f]thieno[3,2-b]thiophen], the solubility in toluene was found to be 50 µg/mL (≈ 80.5 µM). For `CCCCCCCCCCCCc1ccc2cc3c(cc2c1)sc1c2cc4ccc(CCCCCCCCCCCC)cc4cc2sc31` [Compound No. 14, 6,6′-Didodecyldinaphtho[2,3-b:2′,3′-f]thieno[3,2-b]thiophen] the value was 40 µg/mL (≈ 59.1 µM); for `CCCCCCc1ccc2cc3c(cc2c1)sc1c2cc4ccc(CCCCCC)cc4cc2sc31` [compound 6, 6,6′-Dihexyldinaphtho[2,3-b:2′,3′-f]thieno[3,2-b]thiophen], 80 µg/mL (≈ 157 µM); for `c1ccc2cc3c(cc2c1)sc1c2cc4ccccc4cc2sc31` [ref. 1, dinaphtho[2,3-b:2′,3′-f]thieno[3,2-b]thiophene, reference compound], no more than 10 µg/mL. Take `CCCCc1ccc2cc3c(cc2c1)sc1c2cc4ccc(CCCC)cc4cc2sc31` [ref. 2, 6,6′-Dibutyldinaphtho[2,3-b:2′,3′-f]thieno[3,2-b]thiophen, reference compound]: the solubility in toluene came out at 20 µg/mL (≈ 44.2 µM).
